Laboratory results published in PubChem BioAssay (NCI).
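GI50 = concentration required for 50% inhibition of growth. At the TGI there is no net growth.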

Experiments:
Assay in all cases: growth of human tumour cells (NCI), 384-well format
MDA-MB-468 breast = tested on: MDA-MB-468 breast
HL-60(TB) leukemia = tested on: HL-60(TB) leukemia
HCC-2998 colon = tested on: HCC-2998 colon
MDA-MB-231 breast = tested on: MDA-MB-231 breast
U251 glioblastoma = tested on: U251 glioblastoma
HT29 colon = tested on: HT29 colon
IGROV1 ovarian = tested on: IGROV1 ovarian
NCI-H226 lung = tested on: NCI-H226 lung
HS 578T breast = tested on: HS 578T breast
ACHN renal = tested on: ACHN renal
SR leukemia = tested on: SR leukemia
SK-OV-3 ovarian = tested on: SK-OV-3 ovarian
NCI/ADR-RES ovarian = tested on: NCI/ADR-RES ovarian
CAKI-1 renal = tested on: CAKI-1 renal
OVCAR-8 ovarian = tested on: OVCAR-8 ovarian
LOX IMVI melanoma = tested on: LOX IMVI melanoma
OVCAR-3 ovarian = tested on: OVCAR-3 ovarian
MOLT-4 leukemia = tested on: MOLT-4 leukemia
TK-10 renal = tested on: TK-10 renal
PC-3 prostate = tested on: PC-3 prostate
NCI-H322M lung = tested on: NCI-H322M lung
KM12 colon = tested on: KM12 colon
SNB-19 CNS = tested on: SNB-19 CNS
T-47D breast = tested on: T-47D breast
NCI-H460 NSCLC = tested on: NCI-H460 NSCLC
UACC-257 melanoma = tested on: UACC-257 melanoma
HCT-116 colon = tested on: HCT-116 colon
SF-268 CNS = tested on: SF-268 CNS
SF-295 CNS = tested on: SF-295 CNS
NCI-H23 lung = tested on: NCI-H23 lung
OVCAR-5 ovarian = tested on: OVCAR-5 ovarian
NCI-H522 lung = tested on: NCI-H522 lung
RXF 393 renal = tested on: RXF 393 renal
M14 melanoma = tested on: M14 melanoma
COLO 205 colon = tested on: COLO 205 colon
A498 renal = tested on: A498 renal
SF-539 CNS = tested on: SF-539 CNS
DU-145 prostate = tested on: DU-145 prostate
MCF7 breast = tested on: MCF7 breast
UACC-62 melanoma = tested on: UACC-62 melanoma
HOP-62 NSCLC = tested on: HOP-62 NSCLC
OVCAR-4 ovarian = tested on: OVCAR-4 ovarian
SN12C renal = tested on: SN12C renal
SNB-75 CNS = tested on: SNB-75 CNS
SK-MEL-5 melanoma = tested on: SK-MEL-5 melanoma
RPMI-8226 leukemia = tested on: RPMI-8226 leukemia
HOP-92 NSCLC = tested on: HOP-92 NSCLC
BT-549 breast = tested on: BT-549 breast
MALME-3M melanoma = tested on: MALME-3M melanoma
MDA-MB-435 melanoma = tested on: MDA-MB-435 melanoma
HCT-15 colon = tested on: HCT-15 colon
EKVX NSCLC = tested on: EKVX NSCLC
A549 NSCLC = tested on: A549 NSCLC
SK-MEL-28 melanoma = tested on: SK-MEL-28 melanoma

CCOc1ccccc1N=Nc1c(C)[nH]n(-c2nc(-c3ccccc3)cs2)c1=O
GI50 (MDA-MB-468 breast): 1.47 µM | TGI (MDA-MB-468 breast): 9.75 µM | GI50 (HL-60(TB) leukemia): 21.4 µM | TGI (HL-60(TB) leukemia): > 100 µM | GI50 (HCC-2998 colon): > 100 µM | TGI (HCC-2998 colon): > 100 µM | GI50 (MDA-MB-231 breast): > 100 µM | TGI (MDA-MB-231 breast): > 100 µM | GI50 (U251 glioblastoma): > 100 µM | TGI (U251 glioblastoma): > 100 µM | GI50 (HT29 colon): > 100 µM | TGI (HT29 colon): > 100 µM | GI50 (IGROV1 ovarian): > 100 µM | TGI (IGROV1 ovarian): > 100 µM | GI50 (NCI-H226 lung): > 100 µM | TGI (NCI-H226 lung): > 100 µM | GI50 (HS 578T breast): > 100 µM | TGI (HS 578T breast): > 100 µM | GI50 (ACHN renal): > 100 µM | TGI (ACHN renal): > 100 µM | GI50 (SR leukemia): > 100 µM | TGI (SR leukemia): > 100 µM | GI50 (SK-OV-3 ovarian): > 100 µM | TGI (SK-OV-3 ovarian): > 100 µM | GI50 (NCI/ADR-RES ovarian): > 100 µM | TGI (NCI/ADR-RES ovarian): > 100 µM | GI50 (CAKI-1 renal): > 100 µM | TGI (CAKI-1 renal): > 100 µM | GI50 (OVCAR-8 ovarian): > 100 µM | TGI (OVCAR-8 ovarian): > 100 µM | GI50 (LOX IMVI melanoma): > 100 µM | TGI (LOX IMVI melanoma): > 100 µM | GI50 (OVCAR-3 ovarian): > 100 µM | TGI (OVCAR-3 ovarian): > 100 µM | GI50 (MOLT-4 leukemia): 98.9 µM | TGI (MOLT-4 leukemia): > 100 µM | GI50 (TK-10 renal): > 100 µM | TGI (TK-10 renal): > 100 µM | GI50 (PC-3 prostate): > 100 µM | TGI (PC-3 prostate): > 100 µM | GI50 (NCI-H322M lung): > 100 µM | TGI (NCI-H322M lung): > 100 µM | GI50 (KM12 colon): > 100 µM | TGI (KM12 colon): > 100 µM | GI50 (SNB-19 CNS): > 100 µM | TGI (SNB-19 CNS): > 100 µM | GI50 (T-47D breast): > 100 µM | TGI (T-47D breast): > 100 µM | GI50 (NCI-H460 NSCLC): > 100 µM | TGI (NCI-H460 NSCLC): > 100 µM | GI50 (UACC-257 melanoma): > 100 µM | TGI (UACC-257 melanoma): > 100 µM | GI50 (HCT-116 colon): > 100 µM | TGI (HCT-116 colon): > 100 µM | GI50 (SF-268 CNS): > 100 µM | TGI (SF-268 CNS): > 100 µM | GI50 (SF-295 CNS): > 100 µM | TGI (SF-295 CNS): > 100 µM | GI50 (NCI-H23 lung): > 100 µM | TGI (NCI-H23 lung): > 100 µM | GI50 (OVCAR-5 ovarian): > 100 µM | TGI (OVCAR-5 ovarian): > 100 µM | GI50 (NCI-H522 lung): > 100 µM | TGI (NCI-H522 lung): > 100 µM | GI50 (RXF 393 renal): > 100 µM | TGI (RXF 393 renal): > 100 µM | GI50 (M14 melanoma): > 100 µM | TGI (M14 melanoma): > 100 µM | GI50 (COLO 205 colon): > 100 µM | TGI (COLO 205 colon): > 100 µM | GI50 (A498 renal): > 100 µM | TGI (A498 renal): > 100 µM | GI50 (SF-539 CNS): > 100 µM | TGI (SF-539 CNS): > 100 µM | GI50 (DU-145 prostate): > 100 µM | TGI (DU-145 prostate): > 100 µM | GI50 (MCF7 breast): > 100 µM | TGI (MCF7 breast): > 100 µM | GI50 (UACC-62 melanoma): > 100 µM | TGI (UACC-62 melanoma): > 100 µM | GI50 (HOP-62 NSCLC): > 100 µM | TGI (HOP-62 NSCLC): > 100 µM | GI50 (OVCAR-4 ovarian): > 100 µM | TGI (OVCAR-4 ovarian): > 100 µM | GI50 (SN12C renal): > 100 µM | TGI (SN12C renal): > 100 µM | GI50 (SNB-75 CNS): > 100 µM | TGI (SNB-75 CNS): > 100 µM | GI50 (SK-MEL-5 melanoma): > 100 µM | TGI (SK-MEL-5 melanoma): > 100 µM | GI50 (RPMI-8226 leukemia): 53.9 µM | TGI (RPMI-8226 leukemia): > 100 µM | GI50 (HOP-92 NSCLC): > 100 µM | TGI (HOP-92 NSCLC): > 100 µM | GI50 (BT-549 breast): > 100 µM | TGI (BT-549 breast): > 100 µM | GI50 (MALME-3M melanoma): > 100 µM | TGI (MALME-3M melanoma): > 100 µM | GI50 (MDA-MB-435 melanoma): > 100 µM | TGI (MDA-MB-435 melanoma): > 100 µM | GI50 (HCT-15 colon): > 100 µM | TGI (HCT-15 colon): > 100 µM | GI50 (EKVX NSCLC): > 100 µM | TGI (EKVX NSCLC): > 100 µM | GI50 (A549 NSCLC): > 100 µM | TGI (A549 NSCLC): > 100 µM | GI50 (SK-MEL-28 melanoma): > 100 µM | TGI (SK-MEL-28 melanoma): > 100 µM
